Assay results as given in patent publication US8557813B2, “2-benzylpyridazinone derivatives as met kinase inhibitors” (Merck Patent GmbH, priority 2007, dated 2013).
Where a name gives a salt, the structure may show the parent alone.

Assays:
Met kinase [1] = target: T1, Met kinase (Homo sapiens, UniProt P08581); assay: Met kinase inhibition, enzyme assay (flashplate method); type: biochemical; set-up: 6His (N); purchased Upstate 14-526; host or cells: Sf21 insect cells (S. frugiperda), baculovirus
T1 sequence (P08581 25-1390): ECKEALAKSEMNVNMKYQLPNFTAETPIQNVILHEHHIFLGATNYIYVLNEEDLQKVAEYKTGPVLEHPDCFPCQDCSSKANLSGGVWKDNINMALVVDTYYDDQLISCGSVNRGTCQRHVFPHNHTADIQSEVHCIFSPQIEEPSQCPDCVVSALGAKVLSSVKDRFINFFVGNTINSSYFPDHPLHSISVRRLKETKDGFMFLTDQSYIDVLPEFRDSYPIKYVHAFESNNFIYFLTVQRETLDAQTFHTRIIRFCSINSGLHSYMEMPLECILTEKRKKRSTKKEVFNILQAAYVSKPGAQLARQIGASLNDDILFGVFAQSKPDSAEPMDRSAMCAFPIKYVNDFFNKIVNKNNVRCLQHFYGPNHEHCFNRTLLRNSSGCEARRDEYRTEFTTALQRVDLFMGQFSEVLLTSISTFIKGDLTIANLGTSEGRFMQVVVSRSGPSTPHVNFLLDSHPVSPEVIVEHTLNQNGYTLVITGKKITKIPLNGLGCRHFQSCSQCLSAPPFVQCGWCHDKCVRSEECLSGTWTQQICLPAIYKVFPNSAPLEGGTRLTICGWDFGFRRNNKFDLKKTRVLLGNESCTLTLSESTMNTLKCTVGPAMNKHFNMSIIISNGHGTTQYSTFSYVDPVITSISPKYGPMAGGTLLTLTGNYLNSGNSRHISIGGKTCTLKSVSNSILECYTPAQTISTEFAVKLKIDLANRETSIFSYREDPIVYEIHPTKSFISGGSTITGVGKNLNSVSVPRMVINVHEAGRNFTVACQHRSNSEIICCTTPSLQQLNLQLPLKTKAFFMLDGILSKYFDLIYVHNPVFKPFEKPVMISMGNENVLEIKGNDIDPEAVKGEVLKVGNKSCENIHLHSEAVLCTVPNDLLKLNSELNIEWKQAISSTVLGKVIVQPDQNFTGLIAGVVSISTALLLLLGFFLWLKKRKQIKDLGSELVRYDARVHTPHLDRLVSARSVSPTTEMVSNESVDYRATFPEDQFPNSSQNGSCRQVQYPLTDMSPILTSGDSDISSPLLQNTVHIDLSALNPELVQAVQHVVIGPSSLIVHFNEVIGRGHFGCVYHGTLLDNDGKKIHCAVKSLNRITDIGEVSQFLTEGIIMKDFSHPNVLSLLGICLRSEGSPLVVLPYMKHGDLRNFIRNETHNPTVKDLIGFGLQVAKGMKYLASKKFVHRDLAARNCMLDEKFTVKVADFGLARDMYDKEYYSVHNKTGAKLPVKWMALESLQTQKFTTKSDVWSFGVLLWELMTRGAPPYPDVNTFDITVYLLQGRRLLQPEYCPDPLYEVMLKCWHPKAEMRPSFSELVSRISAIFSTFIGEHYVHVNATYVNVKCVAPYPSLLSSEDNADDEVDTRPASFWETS
Text: According to the manufacturer's data (Met, active, upstate, catalogue No. 14-526), Met kinase is expressed for the purposes of protein production in insect cells (Sf21; S. frugiperda) and subsequent affinity-chromatographic purification as “N-terminal 6His-tagged” recombinant human protein in a baculovirus expression vector.
The test plates used are 96-well Flashplate® microtitre plates from Perkin Elmer (Cat. No. SMP200). The components of the kinase reaction described below are pipetted into the assay plate. The Met kinase and the substrate poly Ala-Glu-Lys-Tyr, (pAGLT, 6:2:5:1), are incubated for 3 hrs at room temperature with radioactively labelled ^33P-ATP in the presence and absence of test substances in a total volume of 100 μl. The reaction is terminated using 150 μl of a 60 mM EDTA solution. After incubation for a further 30 min at room temperature, the supernatants are filtered off with suction, and the wells are washed three times with 200 μl of 0.9% NaCl solution each time. The measurement of the bound radioactivity is carried out by means of a scintillation measuring instrument (Topcount NXT, Perkin-Elmer).
The full value used is the inhibitor-free kinase reaction. This should be approximately in the range 6000-9000 cpm. The pharmacological zero value used is staurosporin in a final concentration of 0.1 mM. The inhibitory values (IC50) are determined using the RS1_MTS program.
Kinase Reaction Conditions Per Well:
10 μl of substance to be tested in assay buffer with 10% of DMSO
10 μl of ATP (final concentration 1 μM cold, 0.35 μCi of ^33P-ATP)
50 μl of Met kinase/substrate mixture in assay buffer; • (10 ng of enzyme/well, 50 ng of pAGLT/well) • Solutions Used: • Assay buffer: • 50 mM HEPES • 3 mM magnesium chloride • 3 μM sodium orthovanadate • 3 mM manganese(II) chloride • 1 mM dithiothreitol (DTT) • pH=7.5 (to be set using sodium hydroxide) • Stop Solution: • 60 mM Titriplex III (EDTA) • ^33P-ATP: Perkin-Elmer; • Met kinase: Upstate, Cat. No. 14-526, Stock 1 μg/10 μl; spec. activity 954 U/mg; • Poly-Ala-Glu-Lys-Tyr, 6:2:5:1: Sigma Cat. No. P1152

Met kinase [2] = target: T1, Met kinase; assay: Met kinase inhibition, cell assay; type: cell-based
TPR-Met/NIH3T3 cells = assay: In-vivo test, TPR-Met/NIH3T3 tumor model in mice; conditions: female Balb/C mice, s.c. TPR-Met/NIH3T3 tumors, 200 mg/kg daily by gastric tube, 9 days, tumor volume
Procedure: Experimental Procedure: Female Balb/C mice (breeder: Charles River Wiga) were 5 weeks old on arrival. They were acclimatized to our keeping conditions for 7 days. Each mouse was subsequently injected subcutaneously in the pelvic area with 4 million TPR-Met/NIH3T3 cells in 100 μl of PBS (without Ca++ and Mg++). […] 100 μl of vehicle (0.25% methylcellulose/100 mM acetate buffer, pH 5.5) were administered daily to the control group, and 200 mg/kg of “A56” or “A91” dissolved in the vehicle (volume likewise 100 μl/animal) were administered daily to the treatment groups, in each case by gastric tube.
Measurement of the tumor volume: The length (L) and breadth (B) were measured using a Vernier calliper, and the tumor volume was calculated from the formula L×B×B/2.
Keeping conditions: 4 or 5 animals per cage, feeding with commercial mouse food (Sniff).

| Compound | IC50 (Met kinase [1]) | IC50 (Met kinase [2]) | antitumoral action (TPR-Met/NIH3T3 cells) |
| --- | --- | --- | --- |
| O=c1cccnn1Cc1cccc(-c2ncc(-c3cnn(CCN4CCOCC4)c3)cn2)c1 [Compound A14, 2-(3-{5-[1-(2-morpholin-4-ylethyl)-1H-pyrazol-4-yl]pyrimidin-2-yl}benzyl)-2H-pyridazin-3-one] | 1 to 100 nM | 100 to 10000 nM |  |
| Nc1cnc(-c2cccc(Cn3nc(C4CC4)ccc3=O)c2)nc1 [Compound A18, 2-[3-(5-aminopyrimidin-2-yl)benzyl]-6-cyclopropyl-2H-pyridazin-3-one] | 100 to 10000 nM | 100 to 10000 nM | significant antitumoral action |
| O=c1ccc(C2CC2)nn1Cc1cccc(-c2ncc(-c3cnn(CCN4CCCC4)c3)cn2)c1 [Compound A2, 6-cyclopropyl-2-(3-{5-[1-(2-pyrrolidin-1-ylethyl)-1H-pyrazol-4-yl]pyrimidin-2-yl}benzyl)-2H-pyridazin-3-one] | 1 to 100 nM | 1 to 100 nM |  |
| Cc1nc(-c2cccc(Cn3nc(C4CC4)ccc3=O)c2)no1 [Compound A7, 6-cyclopropyl-2-[3-(5-methyl-1,2,4-oxadiazol-3-yl)benzyl]-2H-pyridazin-3-one] | 100 to 10000 nM | > 10000 nM |  |
| O=c1ccc(C2CC2)nn1Cc1cccc(-c2ncc(-c3cnn(CCN4CCOCC4)c3)cn2)c1 [Compound A3, 6-cyclopropyl-2-(3-{5-[1-(2-morpholin-4-ylethyl)-1H-pyrazol-4-yl]-pyrimidin-2-yl}benzyl)-2H-pyridazin-3-one] | 1 to 100 nM | 1 to 100 nM |  |
| CC(C)c1ccc(=O)n(Cc2cccc(-c3ncc(OCCCN(C)C)cn3)c2)n1 [Compound A10, 2-{3-[5-(3-dimethylaminopropoxy)pyrimidin-2-yl]benzyl}-6-isopropyl-2H-pyridazin-3-one formate] | 1 to 100 nM | 100 to 10000 nM |  |
| O=c1ccc(C2CCC2)nn1Cc1cccc(-c2ncc(-c3cnn(CCN4CCCC4)c3)cn2)c1 [Compound A15, 6-cyclobutyl-2-(3-{5-[1-(2-pyrrolidin-1-ylethyl)-1H-pyrazol-4-yl]pyrimidin-2-yl}benzyl)-2H-pyridazin-3-one] | 1 to 100 nM | 1 to 100 nM |  |
| CN1CCN(c2cnc(-c3cccc(Cn4nc(C5CC5)ccc4=O)c3)nc2)CC1 [Compound A12, 6-cyclopropyl-2-{3-[5-(4-methylpiperazin-1-yl)pyrimidin-2-yl]benzyl}-2H-pyridazin-3-one] | 1 to 100 nM | 1 to 100 nM |  |
| O=c1ccc(C2CC2)nn1Cc1cccc(-c2ncc(OC3CCNCC3)cn2)c1 [Compound A11, 6-cyclopropyl-2-{3-[5-(piperidin-4-yloxy)pyrimidin-2-yl]benzyl}-2H-pyridazin-3-one] | 1 to 100 nM | 100 to 10000 nM |  |
| CC(C)c1ccc(=O)n(Cc2cccc(-c3ncc(-c4cnn(CCN5CCOCC5)c4)cn3)c2)n1 [Compound A13, 6-isopropyl-2-(3-{5-[1-(2-morpholin-4-ylethyl)-1H-pyrazol-4-yl]pyrimidin-2-yl}benzyl)-2H-pyridazin-3-one] | 1 to 100 nM | 100 to 10000 nM |  |
| O=c1ccc(C2CC2)nn1Cc1cccc(-c2ncc(-c3cnn(C4CCNCC4)c3)cn2)c1 [Compound A5, 6-cyclopropyl-2-{3-[5-(1-piperidin-4-yl-1H-pyrazol-4-yl)-pyrimidin-2-yl]benzyl}-2H-pyridazin-3-one] | 1 to 100 nM | 1 to 100 nM |  |
| Cc1ccc(=O)n(Cc2cccc(-c3ncc(-c4cnn(C5CCNCC5)c4)cn3)c2)n1 [Compound A6, 6-methyl-2-{3-[5-(1-piperidin-4-yl-1H-pyrazol-4-yl)pyrimidin-2-yl]benzl}-2H-pyridazin-3-one] | 1 to 100 nM | 100 to 10000 nM |  |
| CN1CCC(Oc2cnc(-c3cccc(Cn4nc(C5CC5)ccc4=O)c3)nc2)CC1 [Compound A9, 6-cyclopropyl-2-{3-[5-(1-methylpiperidin-4-yloxy)pyrimidin-2-yl]benzyl}-2H-pyridazin-3-one] | 1 to 100 nM | 1 to 100 nM |  |
| CN(C)CCCOc1cnc(-c2cccc(Cn3nc(C4CC4)ccc3=O)c2)nc1 [Compound A8, 6-cyclopropyl-2-{3-[5-(3-dimethylaminopropoxy)pyrimidin-2-yl]benzyl}-2H-pyridazin-3-one] | 1 to 100 nM | 1 to 100 nM |  |
| O=c1ccc(C2CC2)nn1Cc1cccc(-c2ncc(Br)cn2)c1 [Compound A1, 2-[3-(5-bromopyrimidin-2-yl)benzyl]-6-cyclopropyl-2H-pyridazin-3-one] | 1 to 100 nM | 100 to 10000 nM |  |
| Cc1cnc(-c2cccc(Cn3nc(C4CC4)ccc3=O)c2)nc1 [Compound A4, 6-cyclopropyl-2-[3-(5-methylpyrimidin-2-yl)benzyl]-2H-pyridazin-3-one] | 1 to 100 nM | 100 to 10000 nM |  |
